# According to ChEMBL document CHEMBL1135302, “Optimization of the 4-aryl group of 4-aryl-pyridine glucagon antagonists: development of an efficient, alternative synthesis” (Bioorg Med Chem Lett, 2002):
# Target: T1, Glucagon receptor (Homo sapiens, UniProt P47871)
# Test: Tested for its ability to inhibit cAMP production in human glucagon receptor expressed CHO cells
# Type: functional, cell-based
# T1 sequence (P47871 whole entry): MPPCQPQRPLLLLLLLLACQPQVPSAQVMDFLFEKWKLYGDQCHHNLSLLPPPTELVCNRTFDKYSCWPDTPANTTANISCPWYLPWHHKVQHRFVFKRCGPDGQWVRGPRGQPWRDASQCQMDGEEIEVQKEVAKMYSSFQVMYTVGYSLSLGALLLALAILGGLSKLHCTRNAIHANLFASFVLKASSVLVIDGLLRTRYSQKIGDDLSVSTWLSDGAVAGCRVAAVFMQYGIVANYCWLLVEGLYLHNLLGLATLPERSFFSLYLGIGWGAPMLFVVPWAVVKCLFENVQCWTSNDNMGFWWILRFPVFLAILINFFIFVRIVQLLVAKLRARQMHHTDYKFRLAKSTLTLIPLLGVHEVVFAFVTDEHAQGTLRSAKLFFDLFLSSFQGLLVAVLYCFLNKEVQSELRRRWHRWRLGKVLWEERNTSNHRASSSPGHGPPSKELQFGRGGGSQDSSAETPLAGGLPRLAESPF
row,IC50,SMILES
1,0.4 µM,CCCCCc1c(C(C)C)nc(C(C)C)c(CO)c1-c1ccc(F)cc1
2,0.12 µM,CCCCCc1c(C(C)C)nc(C(C)C)c(CO)c1-c1ccc(F)cc1O

# Target: T1, Glucagon receptor
# Test: Percentage inhibition of human glucagon receptor function expressed in CHO cells at a concentration of 20 uM.
# Type: cell-based
row,inhibition,SMILES
1,35%,CCCCCc1c(C(C)C)nc(C(C)C)c(CO)c1-c1ccc(C(F)(F)F)cc1
2,42%,CCCCCc1c(C(C)C)nc(C(C)C)c(CO)c1-c1ccc(CC)cc1
3,49%,CCCCCc1c(C(C)C)nc(C(C)C)c(CO)c1-c1cccc(Cl)c1
4,34%,CCCCCc1c(C(C)C)nc(C(C)C)c(CO)c1-c1ccc(C(C)C)cc1
5,24%,CCCCCc1c(C(C)C)nc(C(C)C)c(CO)c1-c1ccc(O)cc1
6,37%,CCCCCc1c(C(C)C)nc(C(C)C)c(CO)c1-c1ccc(OC)cc1
7,46%,CCCCCc1c(C(C)C)nc(C(C)C)c(CO)c1-c1cccc(C)c1
8,16%,CCCCCc1c(C(C)C)nc(C(C)C)c(CO)c1-c1ccc2ccccc2c1

# Further lines, the molecule ahead of its results:
row,SMILES,inhibition
1,CCCCCc1c(C(C)C)nc(C(C)C)c(CO)c1-c1ccc(Cl)cc1Cl,8%
2,CCCCCc1c(C(C)C)nc(C(C)C)c(CO)c1-c1ccc(-c2ccccc2)cc1,2%
3,CCC/C=C/c1c(C(C)C)nc(C(C)C)c(CO)c1-c1ccc(S(C)(=O)=O)cc1,14%
4,CCCCCc1c(C(C)C)nc(C(C)C)c(CO)c1-c1ccc2c(c1)CCCC2,37%
5,CCCCCc1c(C(C)C)nc(C(C)C)c(CO)c1-c1cccc(C(F)(F)F)c1,25%
6,CCCCCc1c(C(C)C)nc(C(C)C)c(CO)c1-c1ccccc1CO,44%
7,CCCCCc1c(C(C)C)nc(C(C)C)c(CO)c1-c1ccccc1OC,27%
8,CCCCCc1c(C(C)C)nc(C(C)C)c(CO)c1-c1cccc2ccccc12,6%
9,CCC/C=C/c1c(C(C)C)nc(C(C)C)c(CO)c1-c1ccc(Cl)c(Cl)c1,39%
10,CCCCCc1c(C(C)C)nc(C(C)C)c(C)c1-c1ccccc1O,11%
11,CCCCCc1c(C(C)C)nc(C(C)C)c(CO)c1-c1ccccc1NC(C)=O,13%
12,CCCCCc1c(C(C)C)nc(C(C)C)c(CO)c1-c1ccccc1C,33%

# Target: T1, Glucagon receptor
# Test: biochemical
# Description: Tested for its inhibitory activity against human glucagon receptor (hGR) expressed in CHO cells
row,IC50,SMILES
1,19 µM,CCCCCc1c(C(C)C)nc(C(C)C)c(CO)c1-c1ccc(F)c(CO)c1
2,11 µM,CCCCCc1c(C(C)C)nc(C(C)C)c(CO)c1-c1ccc(F)cc1F
3,0.19 µM,CCCCCc1c(C(C)C)nc(C(C)C)c(CO)c1-c1ccc(F)cc1O

# The remaining lines, values behind:
row,SMILES,IC50
1,CCCCCc1c(C(C)C)nc(C(C)C)c(CO)c1-c1cccc(OC)c1,48 µM
2,CC(C)=Cc1c(C(C)C)nc(C(C)C)c(O)c1-c1ccc(F)cc1,7 µM
3,CCCCCc1c(C(C)C)nc(C(C)C)c(CO)c1-c1ccccc1N,2.3 µM
